# From patent US20240101531A1, “PYRIDINAMINE DERIVATIVES AND THEIR USE AS POTASSIUM CHANNEL MODULATORS” (Xenon Pharmaceuticals Inc., priority 2022, published 2024)
# Target: human KV7.2/KV7.3 (Homo sapiens (Human), UniProt O43525+O43526)
# Test: Potassium flux assay (IPG-2 AM dye)
# Type: cell-based
# Settings: TREX HEK 293 or HEK 293 cells expressing human KV7.2/KV7.3; arithmetic mean values
# Outline: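 HEK 293 or TREX HEK 293 cells stably expressing human KV7.2/KV7.3 (tetracycline-induced where needed), loaded with IPG-2 AM, then compound for 20 min at room temperature. Flux triggered by K challenge buffer (10 mM KCl, pH 7.4), read at 530/558 nm; EC50 from 16-point 2-fold series from 30 μM, normalised to DMSO and reference modulator.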
row,EC50 [nM],SMILES
1,1000 to 10000,"N#C[C@H]1CCC[C@@H](Oc2ccc3c(Nc4ccc(Cl)nc4)nccc3c2)C1 [Example 345, (1 S,3R)-3-((1-((6-chloropyridin-3-yl)amino)isoquinolin-6-yl)oxy)cyclohexane-1-carbonitrile]"
2,< 1000,"O[C@@H]1CCC[C@H](Oc2ccc3c(Nc4ccc(Cl)nc4)nccc3c2)C1 [Example 346, (1R,3S)-3-((1-((6-chloropyridin-3-yl)amino)isoquinolin-6-yl)oxy)cyclohexan-1-ol]"
3,< 1000,"O[C@H]1CCC[C@@H](Oc2ccc3c(Nc4ccc(Cl)nc4)nccc3c2)C1 [Example 347, (1 S,3R)-3-((1-((6-chloropyridin-3-yl)amino)isoquinolin-6-yl)oxy)cyclohexan-1-ol]"
4,< 1000,"N#CC1(COc2ccc3c(Nc4cnc(Cl)nc4)nccc3c2)CC12CC2 (centres unmarked) [Example 349, 1-(((1-((2-chloropyrimidin-5-yl)amino)isoquinolin-6-yl)oxy)methyl)spiro[2.2]pentane-1-carbonitrile]"
5,1000 to 10000,"O[C@H]1CC[C@H](Oc2ccc3c(Nc4ccc(Cl)nc4)nccc3c2)CC1 [Example 350, (1r,4r)-4-((1-((6-chloropyridin-3-yl)amino)isoquinolin-6-yl)oxy)cyclohexan-1-ol]"
6,< 1000,"CC1(C)CC1(C#N)COc1ccc2c(Nc3cnc(Cl)nc3)nccc2c1 (centres unmarked) [Example 351, 1-(((1-((2-chloropyrimidin-5-yl)amino)isoquinolin-6-yl)oxy)methyl)-2,2-dimethylcyclopropane-1-carbonitrile]"
7,< 1000,"Cc1c(COc2ccc3c(Nc4cnc(Cl)nc4)nccc3c2)cnn1C [Example 352, N-(2-chloropyrimidin-5-yl)-6-((1,5-dimethyl-1H-pyrazol-4-yl)methoxy)isoquinolin-1-amine]"
8,< 1000,"Cc1ncc(Nc2nccc3cc(OCc4cnn(C)c4C)ccc23)cn1 [Example 353, 6-((1,5-dimethyl-1H-pyrazol-4-yl)methoxy)-N-(2-methylpyrimidin-5-yl)isoquinolin-1-amine]"
9,< 1000,"CC(F)(F)C1(COc2ccc3c(Nc4cnc(Cl)nc4)nccc3c2)COC1 [Example 355, N-(2-chloropyrimidin-5-yl)-6-((3-(1,1-difluoroethyl)oxetan-3-yl)methoxy)isoquinolin-1-amine]"
10,< 1000,"CC(C)(C)OC(=O)N[C@H]1CCC[C@@H](Oc2ccc3c(Nc4cnc(Cl)nc4)nccc3c2)C1 [Example 356, tert-butyl ((1S,3R)-3-((1-((2-chloropyrimidin-5-yl)amino)isoquinolin-6-yl)oxy)cyclohexyl)carbamate]"
11,< 1000,"O[C@H]1CCC[C@@H](Oc2ccc3c(Nc4cnc(Cl)nc4)nccc3c2)C1 [Example 359, (1 S,3R)-3-((1-((2-chloropyrimidin-5-yl)amino)isoquinolin-6-yl)oxy)cyclohexan-1-ol]"
12,< 1000,"NC(=O)C1(COc2ccc3c(Nc4cnc(Cl)nc4)nccc3c2)CC1 [Example 361, 1-(((1-((2-chloropyrimidin-5-yl)amino)isoquinolin-6-yl)oxy)methyl)cyclopropane-1-carboxamide]"
13,1000 to 10000,"Clc1ccc(Nc2nccc3cc(OCC4(OCc5ccncc5)CC4)ccc23)cn1 [Example 362, N-(6-chloropyridin-3-yl)-6-((1-(pyridin-4-ylmethoxy)cyclopropyl)methoxy)isoquinolin-1-amine]"
14,< 1000,"FC1(COc2ccc3c(Nc4ccc(Cl)nc4)nccc3c2)CCOC1 (centres unmarked) [Example 363, N-(6-chloropyridin-3-yl)-6-((3-fluorotetrahydrofuran-3-yl)methoxy)isoquinolin-1-amine]"
15,< 1000,"Clc1ccc(Nc2nccc3cc(OCc4cnoc4)ccc23)cn1 [Example 368, N-(6-chloropyridin-3-yl)-6-(isoxazol-4-ylmethoxy)isoquinolin-1-amine]"
16,< 1000,"N#CC1(COc2ccc3c(Nc4cnc(Cl)nc4)nccc3c2)CCC1 [Example 369, 1-(((1-((2-chloropyrimidin-5-yl)amino)isoquinolin-6-yl)oxy)methyl)cyclobutane-1-carbonitrile]"
17,< 1000,"COc1ncc(Nc2nccc3cc(OCC4(C)COC4)ccc23)cn1 [Example 370, N-(2-methoxypyrimidin-5-yl)-6-((3-methyloxetan-3-yl)methoxy)isoquinolin-1-amine]"
18,< 1000,"COc1ncc(Nc2nccc3cc(OCc4cnn(C)c4)ccc23)cn1 [Example 371, N-(2-methoxypyrimidin-5-yl)-6-((1-methyl-1H-pyrazol-4-yl)methoxy)isoquinolin-1-amine]"
19,1000 to 10000,"COc1ncc(Nc2nccc3cc(OCC4CC4)ccc23)cn1 [Example 372, 6-(cyclopropylmethoxy)-N-(2-methoxypyrimidin-5-yl)isoquinolin-1-amine]"
20,< 1000,"COc1ncc(Nc2nccc3cc(OCC4(C#N)CC4)ccc23)cn1 [Example 373, 1-(((1-((2-methoxypyrimidin-5-yl)amino)isoquinolin-6-yl)oxy)methyl)cyclopropane-1-carbonitrile]"
21,< 1000,"Cn1cc(COc2ccc3c(Nc4cnc(Cl)c(O)c4)nccc3c2)cn1 [Example 374, 2-chloro-5-((6-((1-methyl-1H-pyrazol-4-yl)methoxy)isoquinolin-1-yl)amino)pyridin-3-ol]"
22,1000 to 10000,"O=C(N[C@@H]1CCC[C@H](Oc2ccc3c(Nc4cnc(Cl)nc4)nccc3c2)C1)C(F)(F)F [Example 375, N-((1R,3S)-3-((1-((2-chloropyrimidin-5-yl)amino)isoquinolin-6-yl)oxy)cyclohexyl)-2,2,2-trifluoroacetamide]"
23,< 1000,"CC(=O)N[C@@H]1CCC[C@H](Oc2ccc3c(Nc4cnc(Cl)nc4)nccc3c2)C1 [Example 376, N-((1R,3S)-3-((1-((2-chloropyrimidin-5-yl)amino)isoquinolin-6-yl)oxy)cyclohexyl)acetamide]"
24,< 1000,"O=C(N[C@H]1CCC[C@@H](Oc2ccc3c(Nc4cnc(Cl)nc4)nccc3c2)C1)C(F)(F)F [Example 377, N-((1 S,3R)-3-((1-((2-chloropyrimidin-5-yl)amino)isoquinolin-6-yl)oxy)cyclohexyl)-2,2,2-trifluoroacetamide]"
25,< 1000,"CC(=O)N[C@H]1CCC[C@@H](Oc2ccc3c(Nc4cnc(Cl)nc4)nccc3c2)C1 [Example 378, N-((1 S,3R)-3-((1-((2-chloropyrimidin-5-yl)amino)isoquinolin-6-yl)oxy)cyclohexyl)acetamide]"
26,< 1000,"Clc1ccc(Nc2nccc3cc(OCc4cn[nH]c4C4CC4)ccc23)cn1 [Example 379, N-(6-chloropyridin-3-yl)-6-((5-cyclopropyl-1H-pyrazol-4-yl)methoxy)isoquinolin-1-amine]"
27,< 1000,"FC(F)Cn1cc(COc2ccc3c(Nc4ccc(Cl)nc4)nccc3c2)cn1 [Example 380, N-(6-chloropyridin-3-yl)-6-((1-(2,2-difluoroethyl)-1H-pyrazol-4-yl)methoxy)isoquinolin-1-amine]"
28,< 1000,"Clc1ncc(Nc2nccc3cc(OCc4cn[nH]c4)ccc23)cn1 [Example 381, 6-((1H-pyrazol-4-yl)methoxy)-N-(2-chloropyrimidin-5-yl)isoquinolin-1-amine]"
29,< 1000,"Clc1ncc(Nc2nccc3cc(OC[C@H]4COCCO4)ccc23)cn1 [Example 382, (R)-6-((1,4-dioxan-2-yl)methoxy)-N-(2-chloropyrimidin-5-yl)isoquinolin-1-amine]"
